Laboratory results taken from patent US20190255091A1, “RNAi AGENTS FOR [sequence] B VIRUS INFECTION” (priority 2016, published 2019).
Values joined by “and” are separate entries in the source; they are usually repeats but may differ in a detail not shown here. Equal entries are not always repeated.

Columns and labels:
Type in all cases: in vivo
Hepatitis B Virus (HBV) [1] = test: Serum HBsAg levels in pHBV model mice (ELISA); set-up: key to Average HBsAg levels normalized to pre-treatment (day −1) and PBS control / Average HBsAg levels normalized to pre-treatment and PBS control: fraction of pre-treatment level, relative to PBS control mean; conditions: for Average HBsAg normalized to pre-treatment and PBS control: 2.0 mg/kg, single s.c. injection on day 1
From the text: (§1) Six to eight-week-old female NOD.CB17-Prkdscid/NcrCrl (NOD-SCID) mice were transiently transfected in vivo with MC-HBV1.3 by hydrodynamic tail vein injection (Yang P L et al. “Hydrodynamic injection of viral DNA: a mouse model of acute hepatitis B virus infection,” PNAS USA 2002 Vol. 99: p. 13825-13830), administered 30 to 45 days prior to administration of an HBV RNAi agent or control. MC-HBV1.3 is a plasmid-derived minicircle that contains the same terminally redundant human hepatitis B virus sequence HBV1.3 as in plasmid pHBV1.3 and in the HBV1.3.32 transgenic mice (GenBank accession #V01460) (Guidotti L G et al., “High-level hepatitis B virus replication in transgenic mice,” J Virol 1995 Vol. 69, p 6158-6169.). 5 or 10 μg MC-HBV1.3 in Ringer's Solution in a total volume of 10% of the animal's body weight was injected into mice via tail vein to create pHBV model of chronic HBV infection. The solution was injected through a 27-gauge needle in 5-7 seconds as previously described (Zhang G et al., “High levels of foreign gene expression in hepatocytes after tail vein injection of naked plasmid DNA.” Human Gene Therapy 1999 Vol. 10, p 1735-1737.). At pre-dose (either day 1 pre-dose, day −1, or day −2), Hepatitis B surface antigen (HBsAg) HBsAg expression levels in serum were measured by ELISA and the mice were grouped according to average HBsAg expression levels.
(§2) HBV expression levels were normalized to pre-administration expression levels and to control mice injected with phosphate buffered saline (“PBS”).
Mice were anesthetized with 2-3% isoflurane and blood samples were collected from the submandibular area into serum separation tubes (Sarstedt AG & Co., Nümbrecht, Germany). Blood was allowed to coagulate at ambient temperature for 20 min. The tubes were centrifuged at 8,000×g for 3 min to separate the serum and stored at 4° C.
Serum was collected and diluted 10 to 8000-fold in PBS containing 5% nonfat dry milk. […] HBsAg levels were determined with a GS HBsAg EIA 3.0 kit (Bio-Rad Laboratories, Inc., Redmond, Wash.) as described by the manufacturer. Recombinant HBsAg protein, ayw subtype, also diluted in nonfat milk in PBS, was used as a primary standard (Aldevron).
HBsAg expression for each animal was normalized to the control group of mice injected with PBS in order to account for the non-treatment related decline in expression of MC-HBV1.3. First, the HBsAg level for each animal at a time point was divided by the pre-treatment level of expression in that animal in order to determine the ratio of expression “normalized to pre-treatment”. Expression at a specific time point was then normalized to the control group by dividing the “normalized to pre-treatment” ratio for an individual animal by the average “normalized to pre-treatment” ratio of all mice in the normal PBS control group.

Hepatitis B Virus (HBV) [2] = test: Serum HBV DNA levels in pHBV model mice (qPCR); conditions: 0.8 mg/kg, injection on day 1 and day 22, Example 16
From the text: as §1, §2
Equal volumes of serum from mice in a group or subgroup were pooled to a final volume of 100 μL. DNA was isolated from serum samples using the QIAamp MinElute Virus Spin Kit (Qiagen, Valencia, Calif.) following the manufacturer's instructions. Sterile 0.9% saline was added to each sample to a final volume of 200 μL. Serum samples were added to tubes containing buffer and protease. Carrier RNA was added to aid in the isolation of small amounts of DNA. […] After incubating 15 min at 56° C., nucleic acids were precipitated from the lysates with ethanol and the entire solution applied to a column. After washing, the samples were eluted into a volume of 50 μL Buffer AVE.
The number of copies of HBV genomes in DNA isolated from the pHBV mouse model serum was determined by qPCR. Plasmid pSEAP-HBV353-777, encoding a short segment of the HBV genome within the S gene (bases 353-777 of GenBank accession #V01460), was used to create a six log standard curve. Samples with recovery of DNA below 2 standard deviations from the average, based on detection of pHCR/UbC-SEAP were omitted. TaqMan chemistry-based primers and probes with fluor/ZEN/IBFQ are utilized.
qPCR assays were performed on a 7500 Fast or StepOne Plus Real-Time PCR system (Life Technologies). For evaluation of HBV DNA in serum, DNA was isolated from singlet or duplicate purification steps from pooled group serum samples. Quantitations of HBV DNA and recovery control plasmid were determined by qPCR reactions performed in triplicate. The probes to quantitate HBV and pHCR/UbC-SEAP were included in each reaction.

Hepatitis B Virus (HBV) [3] = test: Serum HBeAg levels in pHBV model mice (ELISA); conditions: 0.8 mg/kg, injection on day 1 and day 22, Example 16
From the text: as §1, §2
HBeAg analysis was performed with the HBeAg enzyme linked immunosorbent assay (ELISA) as described by the manufacturer (DiaSorin) using serum diluted 4- to 20-fold in 5% nonfat dry milk. The amount of antigen was determined in the linear range of the assay and quantitated against HBeAg protein standards (Fitzgerald Industries International, catalog #30-AH18, Acton, Mass.).
HBeAg expression for each animal was normalized to the control group of mice injected with PBS in order to account for the non-treatment related decline in expression of MC-HBV1.3. For evaluation of HBeAg in serum, HBeAg is analyzed from pooled group or subgroup serum samples. First, the HBeAg level for each pooled group or subgroup was divided by the pre-treatment level of expression in the same group or subgroup in order to determine the ratio of expression “normalized to pre-treatment”. Expression at a specific time point was then normalized to the control group by dividing the “normalized to pre-treatment” ratio for a group or subgroup by the average “normalized to pre-treatment” ratio of all samples from the normal PBS control group.

Substance: AD05070: HBV RNAi agent duplex AM06606-AS/AM06605-SS (antisense UACCAAUUUAUGCCUACAGCG; sense CGCUGUAGGCAUAAAUUGGUA; chemistry not fully specified)
- Average HBsAg levels normalized to pre-treatment and PBS control (Hepatitis B Virus (HBV) [1]; Day 8, 0.8 mg/kg, injection on day 1 and day 22, Example 16): 0.446 ± 0.143
- Average HBsAg levels normalized to pre-treatment and PBS control (Hepatitis B Virus (HBV) [1]; Day 8, 0.8 mg/kg, single s.c. injection day 1, Example 8): 0.355 ± 0.099 and 0.271 ± 0.058
- Average HBsAg normalized to pre-treatment and PBS control (Hepatitis B Virus (HBV) [1]; Day 8, Example 15): 0.081 ± 0.026
- Average HBsAg levels normalized to pre-treatment and PBS control (Hepatitis B Virus (HBV) [1]; Day 14, 0.8 mg/kg, single s.c. injection day 1, Example 8): 0.366 ± 0.069 and 0.334 ± 0.060
- Average HBsAg levels normalized to pre-treatment and PBS control (Hepatitis B Virus (HBV) [1]; Day 14, 4.0 mg/kg, single s.c. injection day 1, Example 8): 0.069 ± 0.039 and 0.079 ± 0.047
- Average HBsAg levels normalized to pre-treatment and PBS control (Hepatitis B Virus (HBV) [1]; Day 15, 0.8 mg/kg, injection on day 1 and day 22, Example 16): 0.376 ± 0.120
- Average HBsAg normalized to pre-treatment and PBS control (Hepatitis B Virus (HBV) [1]; Day 15, Example 15): 0.127 ± 0.031
- Average HBsAg levels normalized to pre-treatment and PBS control (Hepatitis B Virus (HBV) [1]; Day 21, 0.8 mg/kg, single s.c. injection day 1, Example 8): 0.464 ± 0.055
- Average HBsAg levels normalized to pre-treatment and PBS control (Hepatitis B Virus (HBV) [1]; Day 21, 4.0 mg/kg, single s.c. injection day 1, Example 8): 0.145 ± 0.082
- Average HBsAg levels normalized to pre-treatment and PBS control (Hepatitis B Virus (HBV) [1]; Day 22, 0.8 mg/kg, injection on day 1 and day 22, Example 16): 0.474 ± 0.149
- Average HBsAg normalized to pre-treatment and PBS control (Hepatitis B Virus (HBV) [1]; Day 22, Example 15): 0.223 ± 0.057
- Average HBsAg levels normalized to pre-treatment and PBS control (Hepatitis B Virus (HBV) [1]; Day 28, 0.8 mg/kg, single s.c. injection day 1, Example 8): 0.624 ± 0.053
- Average HBsAg levels normalized to pre-treatment and PBS control (Hepatitis B Virus (HBV) [1]; Day 28, 4.0 mg/kg, single s.c. injection day 1, Example 8): 0.135 ± 0.061
- Average HBsAg levels normalized to pre-treatment and PBS control (Hepatitis B Virus (HBV) [1]; Day 29, 0.8 mg/kg, injection on day 1 and day 22, Example 16): 0.338 ± 0.123
- Average HBsAg normalized to pre-treatment and PBS control (Hepatitis B Virus (HBV) [1]; Day 29, Example 15): 0.330 ± 0.112
- Average HBsAg normalized to pre-treatment and PBS control (Hepatitis B Virus (HBV) [1]; Day 36, Example 15): 0.472 ± 0.121
- Average HBsAg normalized to pre-treatment and PBS control (Hepatitis B Virus (HBV) [1]; Day 43, Example 15): 0.515 ± 0.126
- Average HBsAg normalized to pre-treatment and PBS control (Hepatitis B Virus (HBV) [1]; Day 50, Example 15): 0.689 ± 0.167
- knockdown of HBsAg compared to PBS control (Hepatitis B Virus (HBV) [1]; Example 15, administered alone or in combination with AD04872, across each of the time points measured): significant knockdown of HBsAg
- Average Serum HBV DNA levels normalized to pre-treatment and PBS control (Hepatitis B Virus (HBV) [2]; Day 8): 1.124 ± 0.142
- Average Serum HBV DNA levels normalized to pre-treatment and PBS control (Hepatitis B Virus (HBV) [2]; Day 15): 0.742 ± 0.127
- Average Serum HBV DNA levels normalized to pre-treatment and PBS control (Hepatitis B Virus (HBV) [2]; Day 22): 0.807 ± 0.192
- Average HBeAg levels normalized to pre-treatment and PBS control (Hepatitis B Virus (HBV) [3]; Day 8): 0.634
- Average HBeAg levels normalized to pre-treatment and PBS control (Hepatitis B Virus (HBV) [3]; Day 15): 0.594 ± 0.082
- Average HBeAg levels normalized to pre-treatment and PBS control (Hepatitis B Virus (HBV) [3]; Day 22): 0.840 ± 0.152
- Average HBeAg levels normalized to pre-treatment and PBS control (Hepatitis B Virus (HBV) [3]; Day 29): 0.271 ± 0.029
